This is an account of results in patent publication US20180092923A1, “METHODS FOR TREATING LYSOSOMAL STORAGE DISORDERS” (BIOMARIN PHARMACEUTICAL INC., priority 2015, published 2018).

The test system of this assay is GM01896 cells. Nature of the assay: MPS II cellular assay. The class given is cell-based. The note with it: Homo sapiens, Fibroblast; dermal fibroblasts from an individual with MPS II (GM01896); heparan sulfate disaccharide I2a4, I2a6, I2S0 and/or I2S6 detected by LC-MS. On the procedure: Dermal fibroblasts from humans with an MPS disorder and from healthy donors were grown. Cells were expanded and kept in culture for analysis.
Human foreskin fibroblasts are obtained from the American Type Culture Collection (CRL-1634). […] Sulfamidase activity in cell extracts is measured with 4-methylumbelliferyl-α-D-N-sulfoglucosaminide according the vendors instructions substituting Tris-acetate buffer (pH 6.5; Moscerdam). […]
Cell monolayers are washed with phosphate buffered saline and detached by treatment with GIBCO trypsin-EDTA solution (Invitrogen). […] The amount of protein is determined by bicinchoninic acid (BCA assay, Thermo Scientific). […]
Enzymatically depolymerized GAG preparations are differentially mass labeled by reductive amination with [^12C6]aniline. […] Samples are then analyzed by LC-MS using an LTQ Orbitrap Discovery electrospray ionization mass spectrometer (Thermo Scientific) equipped with quaternary HPLC pump (Finnigan Surveyor MS pump) and a reverse-phase capillary column.
For MPS II, GM01896 cells were treated with a compound described herein and the heparan sulfate disaccharide detected was [^12C6]aniline-tagged I2a4, I2a6, I2S0 and/or I2S6. […] Cell viability was monitored using alamar blue or ATP quantification. IC50's were calculated using curve fitting within the ChemInnovation CBIS database system.

Structures are written as SMILES.

In the case of `Cc1cccc(/C=N/Nc2cc(N3CCOCC3)nc(OCCc3ccccn3)n2)c1` [Compound 11, (E)-4-(6-(2-(3-methylbenzylidene)hydrazinyl)-2-(2-(pyridin-2-yl)ethoxy)pyrimidin-4-yl)morpholine], 170 nM corresponded to half-maximal inhibition (IC50).
